Earlier results in patent EP0238198A2, “Method of modifying the lipid structure function and expression of cell membranes and pharmaceutical compositions for use therein” (Habib, Nagy Adly, priority 1986, dated 1987).

Test system: hepatoma cell lines
Details: in vitro; cited from earlier work

CCCCCCCCC1=C(CCCCCCCC(=O)O)C1 [sterculic acid]
growth inhibition: growth inhibition
saturation index: increase in their saturation index
